Experimental findings from ChEMBL document CHEMBL1201862, “PubChem BioAssay data set” (2004) are described below.

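A five-concentration, 48-hour dose response in 96-well plates underlies each endpoint, interpolated linearly between surrounding concentrations. At the GI50, growth is halved.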 The source made the active and inactive calls. Cut-off read from the data, not from the text of the source: active = GI50 up to about 1.1 µM and inactive = higher. Bridge positions count the residues as written; N and C are the ends. Square brackets hold non-standard residues; d marks the D form. Peptide text beside a SMILES is read from it. I, II: the chains in the order shown. * marks the point of attachment. Quinoxaline2carbonyl = O=C(c1cnc2ccccc2n1)*; NMeV = CN[CH](C(=O)O)C(C)C; NMeC = CN[CH](CS)C(=O)O Where only a bound is given, the exact number is not on record here.

Test systems include 786-0; U-251; HOP-62; PC-3; SR; SK-MEL-28; HT-29; M14; OVCAR-4; SF-268; SNB-75; K562; HCC 2998; NCI-H460; A498; MDA-MB-231; NCI/ADR-RES; Malme-3M; HOP-92; NCI-H522.
Holding throughout (experiment): inhibition of tumour cell growth, NCI panel, 48 h

For `CN(NC(=O)c1ccc(Cl)cc1)C1=NCCCCN1`, the GI50 in the assay with 786-0, in the assay on U-251, with HOP-62, in the assay with PC-3, in the assay with SR and with SK-MEL-28 was > 100 µM (inactive) in each case. The GI50 with HT-29, in the assay with M14, with OVCAR-4, in the assay on SF-268, with SNB-75 and in the assay with K562 was > 100 µM (inactive) in each case. Besides, the GI50 in the assay with HCC 2998, with NCI-H460, in the assay with A498, in the assay on MDA-MB-231, with NCI/ADR-RES and with Malme-3M was > 100 µM (inactive) throughout. For the same molecule, the GI50 in the assay on HOP-92 and in the assay on NCI-H522 was > 100 µM (inactive) each time.

Regarding `Cc1ccc2[nH]c3c(C)c4cc[n+](C)cc4c(C)c3c2c1`, the GI50 in the assay on 786-0 was 0.328 µM (active); in the assay with U-251, 0.41 µM (active); with HOP-62, 0.774 µM (active); in the assay with PC-3, 0.63 µM (active); in the assay on SR, 2.56 µM (inactive); with SK-MEL-28, 2.12 µM (inactive). For the same molecule, the GI50 is 3.33 µM (inactive) in the assay on HT-29; 6.43 µM (inactive) in the assay on M14; 2.54 µM (inactive) with OVCAR-4; 0.441 µM (active) in the assay on SF-268; 0.251 µM (active) with SNB-75; 1.41 µM (inactive) in the assay on K562. For the same molecule, the GI50 in the assay on HCC 2998 was 2.06 µM (inactive); with NCI-H460 it was 3.66 µM (inactive); in the assay with A498, 0.891 µM (active); in the assay with MDA-MB-231 it was 0.931 µM (active); in the assay with NCI/ADR-RES, 7.93 µM (inactive); in the assay with Malme-3M, 1.38 µM (inactive). Also, the GI50 is 4.32 µM (inactive) in the assay with HOP-92 and 1.03 µM (active) with NCI-H522.

As for `CC(C)(C)OC(=O)N1CCCC1C(=O)NC(c1ccccc1)c1ccccc1` (stereo not given), the GI50 with 786-0, in the assay on U-251, with HOP-62, in the assay with PC-3, in the assay on SR and in the assay on SK-MEL-28 was > 100 µM (inactive) each time. Besides, the GI50 in the assay on HT-29, in the assay with M14, in the assay on OVCAR-4, in the assay on SF-268, in the assay on SNB-75 and in the assay with K562 was > 100 µM (inactive) in each case. The GI50 in the assay on HCC 2998, in the assay with NCI-H460, in the assay on A498, with MDA-MB-231, in the assay with NCI/ADR-RES and in the assay on Malme-3M was > 100 µM (inactive) in each case. Further, the GI50 in the assay on HOP-92 and in the assay on NCI-H522 was > 100 µM (inactive) in each case.

In the case of `CC1NC(=O)C(NC(=O)c2cnc3ccccc3n2)COC(=O)C(C(C)C)N(C)C(=O)C2CSSCC(C(=O)N(C)C(C(C)C)C(=O)OCC(NC(=O)c3cnc4ccccc4n3)C(=O)NC(C)C(=O)N2C)N(C)C1=O` (stereo not given) (I: Quinoxaline2carbonyl-SA[NMeC][NMeV] / II: Quinoxaline2carbonyl-SA[NMeC][NMeV]; ester I:1-II:C, I:C-II:1; disulfide I:3-II:3; configuration not given here), the GI50 in the assay on 786-0 is < 0.01 µM (active); with U-251, < 0.01 µM (active); in the assay on HOP-62, < 0.01 µM (active); in the assay with PC-3 it was < 0.01 µM (active); in the assay on SR, 0.114 µM (active); in the assay on SK-MEL-28, < 0.01 µM (active). The GI50 in the assay with HT-29, with M14, in the assay on OVCAR-4, with SF-268, in the assay with SNB-75 and in the assay with K562 was < 0.01 µM (active) throughout. Besides, the GI50 in the assay with HCC 2998, with NCI-H460, in the assay on A498, in the assay on MDA-MB-231, in the assay with NCI/ADR-RES and with Malme-3M was < 0.01 µM (active) in each case. Also, the GI50 in the assay with HOP-92 and in the assay on NCI-H522 was < 0.01 µM (active) each time.
